From PMC8250858, “A Systematic Study of the Stability, Safety, and Efficacy of the de novo Designed Antimicrobial Peptide PepD2 and Its Modified Derivatives Against Acinetobacter baumannii” (Frontiers in Microbiology, 2021)
Read-outs that look alike come from different tables or passages of the source.

What was measured:
Hemolytic assay = assay type: cell-based, rat; conditions: rat red blood cells, 256 μg/mL peptide, 37°C 45 min; read-out: Hemolysis (%) at 256 μg/mL
Description: The blood cells were washed three times with PBS, where the volume of PBS was the same as that of the original blood, by gently turning the centrifuge tube upside down. After washing, ten microliters of blood cells were diluted 2,000-fold in PBS to count the cells. Finally, red blood cells were diluted to 5 × 10^8 cells/mL in PBS. Peptides were dissolved in water and filtered through a 0.2-μm filter to make a stock solution. The peptide concentration was quantitated by the UV280. The peptide solution was diluted in PBS to different concentrations (five times the tested concentrations). Twenty microliters of the peptide in PBS was mixed with 80 μL of red blood cell solution in a 96-well plate (V-bottom). The final peptide concentration was 16–256 μg/mL. In the positive control group, 20 μL of 5% Triton X-100 was added to the red blood cell solution for a final Triton X-100 concentration of 1%. For the negative control group, 20 μL of PBS solution was added. The 96-well plate was incubated at 37°C for 45 min. After centrifuging the 96-well plate at 1,500 × g for 5 min, 30 μL of the supernatant was mixed with 100 μL of deionized water in a 96-well plate (flat bottom). The concentration of heme in each well was measured by the UV405 using an Infinite M1000 pro (Tecan Austria GmbH, Austria). The hemolytic activity was calculated using the following formula. Hemolyticactivity=[(F-F0)/(Ft-F0)]×100% F is the UV405 of the peptide-treated sample F0 is the UV405 of the sample without peptide (negative control) Ft is the UV405 of the Triton-treated sample (positive control)

HEK293 cells = assay type: cell-based, human
Description: Cell viability assays were performed by using the CellTiter 96® AQueous Non-Radioactive Cell Proliferation Assay (Promega, United States), in which 3-(4,5-dimethylthiazol-2-yl)-5-(3-carboxymethoxyphenyl)-2-(4-sulfophenyl)-2H-tetrazolium salt (MTS) can be reduced to purple-colored formazan by intact cells. […] The test peptide was dissolved in water and filtered through a 0.2-μm filter. The peptide concentration was quantitated by the UV280 to make a 5,120 μg/mL stock solution and then serially diluted in serum-free DMEM. On the second day, the medium was replaced with 100 μL of serum-free DMEM containing different peptide concentrations and incubated for 1 or 24 h. Serum-free DMEM without peptide was used as a negative control and medium containing 1% Triton X-100 was used as a positive control. One milligram of MTS powder was dissolved in 0.5 mL of Dulbecco’s phosphate-buffered saline (DPBS). The MTS solution was mixed with one-twentieth of a phenazine methosulfate (PMS) solution ([…]). To each well, 20 μL of the MTS/PMS solution was added. After 3 h, the absorbance was measured with an Infinite M1000 pro (Tecan Austria GmbH, Austria) at a wavelength of 490 nm. Cell viability was calculated using the following equation. Cellviability=[(A-Ap)/(An-Ap)]×100% A is the UV490 of the peptide-treated sample An is the UV490 of the sample without peptide (negative control) Ap is the UV490 of the Triton-treated sample (positive control)

in vitro = in vitro ADME, rat; conditions: rat, plasma, rat plasma, room temperature
Description: EDTA-treated rat whole blood was centrifuged at 4°C and 840 × g for 5 min, and then the blood cells were removed ([[…] et al., 2019]). The supernatant was placed in an Eppendorf tube and centrifuged at 4°C and 13,000 rpm for 10 min to remove lipids (white precipitate). The supernatant was filtered through a 0.2-μm filter. The peptide was dissolved in water and filtered through a 0.2-μm filter. The peptide concentration was quantified by the UV280 to make a 1 mg/mL stock solution. […] At the indicated time, the peptide was analyzed by HPLC with a C18 column using a linear gradient of 20-65% B over 15 min. Solution A: 5% acetonitrile plus 0.1% trifluoroacetic acid in water; solution B: 0.1% trifluoroacetic acid in acetonitrile.

[1] = test system: A. baumannii (ATCC 17978); assay type: cell-based, Acinetobacter baumannii; conditions: ex vivo rat blood, 4 μg/mL of each peptide
Description: The time-kill kinetics measurement against A. baumannii (ATCC 17978) in blood was conducted following a protocol modified from the literature ([Nagarajan et al., 2019]). […] Then, 4 μL of the peptide stock solution to be tested (2,035 μg/mL in water) was added to make the final bacterial cell number 10^7 CFU/mL and the final peptide concentration 4 μg/mL (assigned as tube A). At 2, 4, 6, 8, 10, 20, 30, 40, 50, and 60 min, 100 μL of the bacteria/blood mixture was removed from tube A and mixed with 100 μL of sterilized 2 M NaCl/50% glycerol (twofold dilution, assigned as tube B). […] Ten microliters of the mixture from tube B were mixed with 990 μL of sterilized 1 M NaCl (200-fold dilution, assigned as tube C). Ten microliters of the mixture from tube C was mixed with 90 μL of sterilized 1 M NaCl (2,000-fold dilution, assigned as tube D). Finally, ten or one hundred microliters of solution from each tube was plated on an MHA plate and incubated at 37°C overnight to count the colony number. To test whether freezing in liquid nitrogen kills part of the bacteria, pepdD2 was tested with and without freezing. […] At 0 and 60 min, the bacterial number was measured as described above. […] At the indicated time points, an aliquot of the sample was removed and diluted, and the remaining cell number was counted by plating on MHA plates. The data are expressed as the mean ± SD. […]

A. baumannii 17978 = assay: Time-kill kinetics assay in MHB; assay type: cell-based, Acinetobacter baumannii; conditions: 37°C with shaking, 4 μg/mL for both peptides
Description: FIGURE 4 Time-kill kinetics assay. […] This experiment was performed in ex vivo whole rat blood at room temperature without shaking. A. baumannii (final concentration of 10^7 CFU/mL) was incubated with or without peptide (4 μg/mL) for 60 min. At the indicated time points, an aliquot of the sample was removed and diluted, and the remaining cell number was counted by plating on MHA plates. The data are expressed as the mean ± SD. […] A. baumannii (final concentration of 10^7 CFU/mL) was incubated with or without peptide at 37°C with shaking. The peptide concentration was 4 μg/mL for both peptides.

## Ac-WKKIKKIIKKIKKI-NH2 [pepI2]
Hemolytic assay
  hemolysis at 45 min, 256 μg/mL: 0.27%
HEK293 cells; 1 h
  HEK293 IC50: 68.5 µg/mL
HEK293 cells; 24 h
  HEK293 IC50: 66.8 µg/mL
In vitro
  half-life at 0.6 mg/mL: 11.2 h
[1]
  Killing rate compared: killed bacteria faster than pepdD2
A. baumannii 17978
  Killing rate compared: killed A. baumannii faster than colistin sulfate
